Key:
[1] = tested on: Lp-PLA2 in serum of SD rats; test: In vivo inhibition assay of Lp-PLA2 activity in SD rats, single administration; set-up: species or system rat; conditions: 50 mg/kg oral, serum 1-24 h
Procedure: Each group had 5 SD rats and 50 mg/kg test agents was administrated orally to the rats. […] Blood was collected from the orbits of the rats at 0 h before administration and at 1 h, 3 h, 5 h, 7 h and 24 h after administration and placed at room temperature for 30 minutes before centrifugation. Serum was collected and the Lp-PLA2 activity in serum was measured.

[2] = In vitro assay of S9 metabolic stability, human S9; assay type: in vitro ADME; conditions: for half-life at 0.1 μM: human, S9 fraction, pH 7.4
Procedure: (§1) 3.1.1 The Preparation of Tris/HCl(0.1 M, pH 7.4) Buffer
(§2) 12.12 g of TRIS (tris-hydroxymethyl aminomethane) was weighed, dissolved in 800 mL of water, and adjusted to pH 7.4 with HCl (2 M), and then the volume was adjusted to 1000 mL with water.
(§3) 3.1.2 The preparation of MgCl2
(§4) MgCl2 (100 mM) solution was prepared with 0.1 M Tris/HCl buffer, aliquoted and stored at −20° C. The incubation concentration of MgCl2 was 5.0 mM.
(§5) 3.1.3 The Preparation of NADPH
(§6) NADPH (10 mM) solution was prepared with 0.1 M Tris/HCl buffer, aliquoted and stored at −20° C. The incubation concentration of NADPH was 1.0 mM.
(§7) 3.1.4 The Preparation of S9
(§8) Human S9 (purchased from Reid Liver Disease Research (Shanghai) Co., Ltd.) was diluted 10 times with 0.1 M Tris/HCl and rat S9 (purchased from Reid Liver Disease Research (Shanghai) Co., Ltd.) was diluted 5 times with 0.1 M Tris/HCl, so that the incubation concentrations of human and rat S9 were equivalent to the incubation concentrations of the liver microsomes in the corresponding species (both incubation concentrations of liver microsomes in human and rats are 0.33 mg/mL).
(§9) 3.1.5 The Preparation of the Compounds to be Tested
The compound was dissolved in DMSO to obtain a stock solution at a concentration of 10 mM. The stock solution was diluted to 1 mM with DMSO and then diluted with 0.1% BSA-water to obtain a working solution at a concentration of 2 μM. In the incubation system, the working solution of 2 μM was diluted 20 times to a final concentration of 0.1 μM. The concentration of DMSO in the incubation system was ≤0.01%.
3.1.6 The Preparation of the Positive Control Compound
2 mM VIVID stock solution (purchased from Shanghai Beili Biotechnology Co., Ltd.) was diluted 50 times with the 2 μM working solution for the compounds to be tested. In the incubation system, the mixed working solution of VIVID and the compounds to be tested were diluted 20 times
S9 was incubated in a 96-well plate and each incubation system was 450 μL. […]

[3] = In vitro assay of S9 metabolic stability, rat S9; assay type: in vitro ADME; conditions: S9 fraction, pH 7.4; rat S9, NADPH addition, 0.1 μM compound, 37° C.
Procedure: as §1, §2, §3, §4, §5, §6, §7, §8, §9
The compound was dissolved in DMSO to obtain a stock solution at a concentration of 10 mM. The stock solution was diluted to 1 mM with DMSO and then diluted with 0.1% BSA-water to obtain a working solution at a concentration of 2 μM. […]

[4] = tested on: Lp-PLA2 (rat serum as the source of enzyme); test: In vitro inhibitory activity on Lp-PLA2, rat serum as the source of enzyme (2-thio-PAF/DTNB); assay type: biochemical
Procedure: (§10) 0.1M Tris-HCl, 1 mM EGTA, PH 7.2
(§11) Anhydrous ethanol was used as solvent to make a 25 mg/ml mother liquor. The solution was aliquoted, stored at −80° C. and diluted 900 times before use (about 50 μM of concentration)
(§12) 3) DTNB (5,5′-dithio-bis-(2-nitrobenzoic acid), Sigma, Lot D8130)
(§13) The solution was prepared just before use.
(§14) 4) Compound was dissolved in DMSO to a suitable concentration.
(§15) Lp-PLA2 activity was determined by using 2-thio-PAF as substrate. The thiol group produced upon the hydrolysis of 2-thio-PAF can react with DTNB to generate a yellow substance. The optical density at 414 nm can be detected to reflect Lp-PLA2 activity.
1.3 Determination of the Inhibitory Activity of the Compounds on Lp-PLA2 (Rat Serum as the Source of Enzyme (In Vitro)
1) The corresponding reagents were added according to Table 5 and mixed uniformly by shaking.
(§16) 2) 10 μL of DTNB was added to each well.
(§17) 3) 150 μL of 2-thio-PAF was added to each well and shaken for 15 s on a microplate reader to mix the liquid in the well uniformly.

[5] = target: T1, Lp-PLA2 (rabbit serum as the source of enzyme) (Oryctolagus cuniculus, UniProt G1SE06); test: In vitro inhibitory activity on Lp-PLA2, rabbit serum as the source of enzyme (2-thio-PAF/DTNB); assay type: biochemical; conditions: read-out: Inhibitory ratio, % on Lp-PLA2 (rabbit serum as the source of enzyme)
T1 construct: Rabbit Serum as the Source of Enzyme; from tissue; host or cells: rabbit serum
T1 sequence (G1SE06 22-423): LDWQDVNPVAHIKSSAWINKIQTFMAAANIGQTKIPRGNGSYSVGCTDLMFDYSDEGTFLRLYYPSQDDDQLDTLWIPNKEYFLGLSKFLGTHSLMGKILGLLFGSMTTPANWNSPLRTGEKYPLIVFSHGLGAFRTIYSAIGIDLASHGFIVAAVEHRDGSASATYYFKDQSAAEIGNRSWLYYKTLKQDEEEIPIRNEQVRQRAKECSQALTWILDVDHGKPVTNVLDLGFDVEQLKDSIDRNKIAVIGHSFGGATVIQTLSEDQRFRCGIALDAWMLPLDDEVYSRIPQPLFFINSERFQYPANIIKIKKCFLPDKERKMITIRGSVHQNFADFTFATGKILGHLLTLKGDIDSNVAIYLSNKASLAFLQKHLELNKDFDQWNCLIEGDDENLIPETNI
Procedure: as §10, §11, §12, §13, §14, §15
1.1 Determination of the Inhibitory Activity of the Compounds on Lp-PLA2 (Rabbit Serum as the Source of Enzyme) (In Vitro)
1) The corresponding reagents were added according to Table 1 and mixed uniformly by shaking.
as §16, §17

[6] = target: T2, Lp-PLA2 (human recombinant enzyme as the source of enzyme) (Homo sapiens, UniProt Q13093); test: In vitro inhibitory activity on Lp-PLA2, human recombinant enzyme (2-thio-PAF/DTNB); assay type: biochemical; conditions: read-out: inhibitory ratio, % on Lp-PLA2 (human recombinant enzyme as the source of enzyme)
T2 sequence (Q13093 22-441): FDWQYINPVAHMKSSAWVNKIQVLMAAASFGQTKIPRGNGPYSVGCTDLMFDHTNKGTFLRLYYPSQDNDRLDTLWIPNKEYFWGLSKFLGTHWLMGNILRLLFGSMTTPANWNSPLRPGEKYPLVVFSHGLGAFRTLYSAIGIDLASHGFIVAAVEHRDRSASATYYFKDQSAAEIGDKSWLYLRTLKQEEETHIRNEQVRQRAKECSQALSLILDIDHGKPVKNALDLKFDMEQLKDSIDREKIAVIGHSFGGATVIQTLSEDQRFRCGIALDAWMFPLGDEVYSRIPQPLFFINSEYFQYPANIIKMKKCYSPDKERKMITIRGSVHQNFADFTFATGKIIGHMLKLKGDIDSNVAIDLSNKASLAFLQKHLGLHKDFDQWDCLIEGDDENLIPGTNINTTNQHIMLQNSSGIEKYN
Procedure: as §10, §11, §12, §13, §14, §15
1.2 Determination of the Inhibitory Activity of the Compounds on Lp-PLA2 (Human Recombinant Enzyme as the Source of Enzyme) (In Vitro)
1) The corresponding reagents were added according to Table 3 and mixed uniformly by shaking.
as §16, §17

[7] = 10 nM compound, — = no inhibitory activity

With `COc1cc(OCc2ccc(Oc3ccc(Cl)c(C(F)(F)F)c3)c(F)c2)nc(=O)n1C` [Example 66, 4-((4-(4-chloro-3-(trifluoromethyl)phenoxy)-3-fluorobenzyl)oxy)-6-methoxy-1-methylpyrimidin-2(1H)-one] the “activity of Lp-PLA2 in serum of the SD rats after a single administration” value [1] was “comparable to darapladib”.
For `Cn1cc(-c2cc(OCc3cc(F)c(Oc4ccc(Cl)c(C(F)(F)F)c4)c(F)c3)nc(=O)n2C)cn1` [Example 21, 4-((4-(4-chloro-3-(trifluoromethyl)phenoxy)-3,5-difluorobenzyl)oxy)-1-methyl-6-(1-methyl-1H-pyrazolyl-4)pyrimidin-2(1H)-one], the half-life at 0.1 μM [2] was over 1 h, the “metabolism stability (in words)” value ([2]; statement covers human and rat S9) was “superior metabolism stability” and the half-life at 0.1 μM [3] was 195 h. For the same compound, the “inhibitory ratio, % on Lp-PLA2 (rat serum as the source of enzyme)” value [4, 7] was 27.65%, the “inhibitory ratio, % on Lp-PLA2 (rat serum as the source of enzyme)” value ([4]; 100 nM compound) was 82.48% and the inhibition at 0.01 µM [5, 7] was 33.2%. It also gave an inhibition at 0.1 µM ([5]; 100 nM compound) of 65.4%, an inhibition at 0.01 µM ([6]; 10 nM compound) of 82.8% and an inhibition at 0.1 µM ([6]; 100 nM compound) of 90.1%.
`COc1cc(OCc2cc(F)c(Oc3ccc(Cl)c(C(F)(F)F)c3)c(F)c2)nc(=O)n1C` [Example 65, 4-((4-(4-chloro-3-(trifluoromethyl)phenoxy)-3,5-difluorobenzyl)oxy)-6-methoxy-1-methylpyrimidin-2(1H)-one] showed a half-life at 0.1 μM [2] of 7.08 h and a half-life at 0.1 μM [3] of 2.68 h.
